Experimental findings from PubChem BioAssay AID330 (DTP/NCI, 2004) are described below.

The subject of this assay is P388 leukemia ip, CD2F1 mice, survival T/C. Briefly: NCI In Vivo Anticancer Drug Screen. Data for tumor model P388 Leukemia (intraperitoneal) in CD2F1 (CDF1) mice. Conditions: endpoint: median survival time, higher = longer survival. In a few lines:
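Mice carrying the transplanted tumor received test compound or vehicle. Survival was recorded in each group, and the value is the treated-group measurement divided by that of the vehicle-treated control group.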

The mark [1] stands for this setting: dose: 100.0 mg/kg/injection, schedule: Q04DX003 (ip), vehicle: saline with Tween-80.
[2] abbreviates: dose: 200.0 mg/kg/injection, schedule: Q04DX003 (ip), vehicle: saline with Tween-80.
Where [3] appears, read: dose: 400.0 mg/kg/injection, schedule: Q04DX003 (ip), vehicle: saline with Tween-80.
[4] abbreviates: dose: 12.5 mg/kg/injection, schedule: Q01DX009 (ip), vehicle: saline with Tween-80.
Where [5] appears, read: dose: 25.0 mg/kg/injection, schedule: Q01DX009 (ip), vehicle: saline with Tween-80.
Setting [6] is: dose: 50.0 mg/kg/injection, schedule: Q01DX009 (ip), vehicle: saline with Tween-80.
Where [7] appears, read: dose: 100.0 mg/kg/injection, schedule: Q01DX009 (ip), vehicle: saline with Tween-80.
[8] abbreviates: dose: 50.0 mg/kg/injection, schedule: Q01DX005 (ip), vehicle: saline with Tween-80.
Setting [9] is: dose: 100.0 mg/kg/injection, schedule: Q01DX005 (ip), vehicle: saline with Tween-80.
Where [10] appears, read: dose: 200.0 mg/kg/injection, schedule: Q01DX005 (ip), vehicle: saline with Tween-80.
[11] abbreviates: dose: 25.0 mg/kg/injection, schedule: Q01DX005 (ip), vehicle: Klucel (hydroxypropylcellulose) (HPC).
Where [12] appears, read: dose: 50.0 mg/kg/injection, schedule: Q01DX005 (ip), vehicle: Klucel (hydroxypropylcellulose) (HPC).
Where [13] appears, read: dose: 100.0 mg/kg/injection, schedule: Q01DX005 (ip), vehicle: Klucel (hydroxypropylcellulose) (HPC).
Setting [14] is: dose: 120.0 mg/kg/injection, schedule: Q01DX005 (ip), vehicle: Klucel (hydroxypropylcellulose) (HPC).
The mark [15] stands for this setting: dose: 200.0 mg/kg/injection, schedule: Q01DX005 (ip), vehicle: Klucel (hydroxypropylcellulose) (HPC).
Where [16] appears, read: dose: 240.0 mg/kg/injection, schedule: Q01DX005 (ip), vehicle: Klucel (hydroxypropylcellulose) (HPC).
Where [17] appears, read: dose: 100.0 mg/kg/injection, schedule: Q04DX002 (ip), vehicle: saline with Tween-80.
Where [18] appears, read: dose: 200.0 mg/kg/injection, schedule: Q04DX002 (ip), vehicle: saline with Tween-80.

Where “and” joins values, the source holds several entries; their conditions need not be identical. Equal entries are not always repeated. Toxic doses and inconclusive results are not listed.

Regarding `O=C(OCC#CCOC(=O)C(Cl)Cl)C(Cl)Cl`, the T/C by setting is: under setting [1], 108 % of control; under setting [2], 104 % of control; under setting [3], 100 % of control.
With `CC(C)N=Cc1ccccc1O.CC(C)N=Cc1ccccc1O.[Co]`, the T/C is 110 % of control (dose: 12.5 mg/kg/injection, schedule: Q04DX003 (ip), vehicle: saline sonified); 100 % of control (dose: 25.0 mg/kg/injection, schedule: Q04DX003 (ip), vehicle: saline sonified); 105 % of control (dose: 50.0 mg/kg/injection, schedule: Q04DX003 (ip), vehicle: saline sonified).
As for `CC1(C)OC(=O)C(CCc2ccccn2)(CCc2ccccn2)C(=O)O1`, the T/C runs as follows: under setting [4], 113 % of control; under setting [5], 103 % of control; under setting [6], 110 % of control; under setting [7], 114 % of control; (dose: 200.0 mg/kg/injection, schedule: Q01DX009 (ip), vehicle: saline with Tween-80) 104 % of control.
On to `c1ccc(C2SCC3COCN32)cc1` (stereo not drawn), for which the T/C by setting is: under setting [1], 97 % of control; under setting [2], 101 % of control; under setting [3], 100 % of control.
As for `COC(C(=O)C(OC(C)=O)C(C)OC(C)=O)C1Cc2cc3cc(OC4CC(OC5CC(OC(C)=O)C(OC(C)=O)C(C)O5)C(OC(C)=O)C(C)O4)c(C)c(OC(C)=O)c3c(OC(C)=O)c2C(=O)C1OC1CC(OC2CC(OC(C)=O)C(OC3CC(C)(OC(C)=O)C(OC(C)=O)C(C)O3)C(C)O2)C(OC(C)=O)C(C)O1` (stereo not drawn), the T/C runs as follows: (dose: 0.13 mg/kg/injection, schedule: Q01DX009 (ip), vehicle: water) 98 % of control; (dose: 0.25 mg/kg/injection, schedule: Q01DX009 (ip), vehicle: water) 99 % of control; (dose: 0.5 mg/kg/injection, schedule: Q01DX009 (ip), vehicle: water) 105 % of control; (dose: 1.0 mg/kg/injection, schedule: Q01DX009 (ip), vehicle: water) 105 % of control; (dose: 2.0 mg/kg/injection, schedule: Q01DX009 (ip), vehicle: water) 107 % of control; (dose: 4.0 mg/kg/injection, schedule: Q01DX009 (ip), vehicle: water) 111 % of control. The T/C is 114 % of control (dose: 8.0 mg/kg/injection, schedule: Q01DX009 (ip), vehicle: water); 106 % of control (dose: 11.5 mg/kg/injection, schedule: Q01DX009 (ip), vehicle: water); 108 % of control (dose: 23.0 mg/kg/injection, schedule: Q01DX009 (ip), vehicle: water); 115 % of control (dose: 46.0 mg/kg/injection, schedule: Q01DX009 (ip), vehicle: water).
For `COC(=O)C1=C(C)NC(C)=C(C(=O)OC)C(N2C(=O)CCC2=O)C1` (stereo not drawn), the T/C under setting [4] is 100 % of control, the T/C under setting [5] was 91 % of control, the T/C under setting [6] is 88 % of control and the T/C under setting [7] was 88 % of control.
As to `CNC(=O)Nc1nc2ccc([N+](=O)[O-])cc2[nH]1`, the T/C runs as follows: (dose: 200.0 mg/kg/injection, schedule: Q04DX003 (oral), vehicle: saline with Tween-80) 110 % of control; (dose: 400.0 mg/kg/injection, schedule: Q04DX003 (oral), vehicle: saline with Tween-80) 112 % of control; (dose: 800.0 mg/kg/injection, schedule: Q04DX003 (oral), vehicle: saline with Tween-80) 116 % of control and 121 % of control.
Take `CSc1nc(SC)c2cnn(COCCO)c2n1`: the T/C reads like this: under setting [8], 92 % of control; under setting [9], 92 % of control; under setting [10], 92 % of control.
Consider `COc1cccc(C2OC3=C(Nc4ccccc4N3)C2=O)c1` (stereo not drawn), for which the T/C under setting [11] was 98 % of control; the T/C under setting [12] was 100 % of control; the T/C (dose: 60.0 mg/kg/injection, schedule: Q01DX005 (ip), vehicle: Klucel (hydroxypropylcellulose) (HPC)) is 97 % of control; the T/C under setting [13] was 94 % of control; the T/C under setting [14] is 95 % of control; the T/C under setting [15] was 94 % of control. Moreover, the T/C was 94 % of control under setting [16] and 98 % of control (dose: 400.0 mg/kg/injection, schedule: Q01DX005 (ip), vehicle: Klucel (hydroxypropylcellulose) (HPC)).
As to `CC(=O)c1ccc2c(c1)-c1ccccc1C(=O)C2=O`, the T/C (dose: 25.0 mg/kg/injection, schedule: Q01DX009 (ip), vehicle: saline) is 98 % of control; the T/C (dose: 50.0 mg/kg/injection, schedule: Q01DX009 (ip), vehicle: saline) is 106 % of control and 110 % of control; the T/C (dose: 100.0 mg/kg/injection, schedule: Q01DX009 (ip), vehicle: saline) is 113 % of control and 119 % of control.
Turning to `CCOC(=O)COc1cc2c(cc1Cc1ccc3c(c1)OCO3)OCO2`, the T/C (dose: 12.5 mg/kg/injection, schedule: Q01DX005 (ip), vehicle: Klucel (hydroxypropylcellulose) (HPC)) is 96 % of control; the T/C under setting [11] is 96 % of control; the T/C under setting [12] was 101 % of control; the T/C under setting [13] was 98 % of control; the T/C under setting [15] is 99 % of control.
Turning to `COc1ccc2c(-c3ccc(O)cc3)c(-c3ccccc3)c(=O)oc2c1`, the T/C by setting is: (dose: 60.0 mg/kg/injection, schedule: Q01DX005 (ip), vehicle: saline with Tween-80) 86 % of control; (dose: 120.0 mg/kg/injection, schedule: Q01DX005 (ip), vehicle: saline with Tween-80) 97 % of control; (dose: 240.0 mg/kg/injection, schedule: Q01DX005 (ip), vehicle: saline with Tween-80) 89 % of control.
Take `Fc1cccc(Cl)c1C(Nc1nncs1)Nc1nncs1`: the T/C was 171 % of control under setting [14]; 187 % of control and 194 % of control under setting [16].
Turning to `Nc1ccncc1N`, the T/C (dose: 2.5 mg/kg/injection, schedule: Q01DX009 (ip), vehicle: saline) was 94 % of control; the T/C (dose: 3.12 mg/kg/injection, schedule: Q01DX009 (ip), vehicle: saline) is 101 % of control; the T/C (dose: 5.0 mg/kg/injection, schedule: Q01DX009 (ip), vehicle: saline) is 106 % of control; the T/C (dose: 6.25 mg/kg/injection, schedule: Q01DX009 (ip), vehicle: saline) is 97 % of control; the T/C (dose: 10.0 mg/kg/injection, schedule: Q01DX009 (ip), vehicle: saline) is 100 % of control; the T/C (dose: 12.5 mg/kg/injection, schedule: Q01DX009 (ip), vehicle: saline) was 103 % of control. In addition, the T/C (dose: 20.0 mg/kg/injection, schedule: Q01DX009 (ip), vehicle: saline) was 93 % of control.
With `O=Cc1ccc(C=O)cc1`, the T/C runs as follows: under setting [17], 98 % of control; under setting [18], 102 % of control; (dose: 400.0 mg/kg/injection, schedule: Q04DX002 (ip), vehicle: saline with Tween-80) 102 % of control.
In the case of `CCC[CH2][Pb]([CH2]CCC)([O]C(C)=O)[O]C(C)=O`, the T/C was 114 % of control (dose: 1.56 mg/kg/injection, schedule: Q04DX003 (ip), vehicle: saline); 118 % of control (dose: 3.13 mg/kg/injection, schedule: Q04DX003 (ip), vehicle: saline); 120 % of control (dose: 6.25 mg/kg/injection, schedule: Q04DX003 (ip), vehicle: saline).
`Cc1cc(C)n(C2=NC3(c4ccc(Cl)cc4)NC(=O)NC3(c3ccc(Cl)cc3)N2)n1` (stereo not drawn): the T/C by setting is: (dose: 50.0 mg/kg/injection, schedule: Q04DX002 (ip), vehicle: saline with Tween-80) 96 % of control; under setting [17], 97 % of control; under setting [18], 93 % of control.
`O=S1(=O)C(c2ccc(F)cc2)=C(O)c2cc3ccccc3nc21`: the T/C by setting is: under setting [6], 112 % of control; under setting [7], 97 % of control.
For `Nc1c(Cl)c(Cl)c(Br)c(Cl)c1Cl` the same measures were 92 % of control and 90 % of control.
For `CC(C)CC(NC(=O)C(Cc1ccccc1)NC(=O)CNC(=O)C(C)NC(=O)C(N)Cc1ccc(O)cc1)C(=O)O` (stereo not drawn), the T/C runs as follows: under setting [8], 93 % of control; under setting [9], 109 % of control; under setting [10], 91 % of control.
